In the assay the target is USP7 (Homo sapiens, UniProt Q93009). The assay can be described thus: USP7 inhibitory potency (IC50). The format is biochemical. On the procedure:
Activity for compounds described herein is provided in Table 2, wherein potency levels are provided as follows: (Potency: USP7 IC50: A<0.01 μM; B=0.01-0.1 μM; C=>0.1 μM.

Chain of USP7 (Q93009 whole entry): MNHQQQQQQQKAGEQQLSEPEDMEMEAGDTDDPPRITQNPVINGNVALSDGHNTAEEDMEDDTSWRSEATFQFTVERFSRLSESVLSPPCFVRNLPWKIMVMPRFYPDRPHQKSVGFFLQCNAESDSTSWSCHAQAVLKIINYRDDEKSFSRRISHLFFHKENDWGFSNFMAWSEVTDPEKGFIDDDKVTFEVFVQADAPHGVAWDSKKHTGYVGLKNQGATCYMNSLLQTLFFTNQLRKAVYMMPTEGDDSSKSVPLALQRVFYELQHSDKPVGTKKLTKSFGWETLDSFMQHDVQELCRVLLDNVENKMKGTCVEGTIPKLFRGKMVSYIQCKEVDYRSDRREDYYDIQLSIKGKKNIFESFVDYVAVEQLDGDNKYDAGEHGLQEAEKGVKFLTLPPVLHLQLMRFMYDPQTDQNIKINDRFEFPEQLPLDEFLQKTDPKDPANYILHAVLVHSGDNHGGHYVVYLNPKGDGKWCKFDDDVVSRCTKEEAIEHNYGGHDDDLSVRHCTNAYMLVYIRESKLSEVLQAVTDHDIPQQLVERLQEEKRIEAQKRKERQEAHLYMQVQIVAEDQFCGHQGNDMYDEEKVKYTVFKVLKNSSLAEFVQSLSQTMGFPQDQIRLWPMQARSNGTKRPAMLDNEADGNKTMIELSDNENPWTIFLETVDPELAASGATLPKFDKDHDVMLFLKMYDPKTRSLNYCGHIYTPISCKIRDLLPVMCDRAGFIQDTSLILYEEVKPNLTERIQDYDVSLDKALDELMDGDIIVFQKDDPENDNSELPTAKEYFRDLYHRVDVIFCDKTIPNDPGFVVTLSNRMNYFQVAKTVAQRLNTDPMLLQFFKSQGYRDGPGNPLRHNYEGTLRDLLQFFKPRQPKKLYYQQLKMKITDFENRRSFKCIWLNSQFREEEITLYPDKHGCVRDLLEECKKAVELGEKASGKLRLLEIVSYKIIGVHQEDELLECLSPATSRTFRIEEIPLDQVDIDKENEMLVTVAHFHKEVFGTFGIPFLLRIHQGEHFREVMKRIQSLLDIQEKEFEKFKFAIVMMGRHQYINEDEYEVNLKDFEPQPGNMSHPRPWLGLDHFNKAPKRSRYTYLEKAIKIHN

As a reminder, the IC50 is the concentration needed to halve the response being measured. Read a high IC50 as weaker potency. In turn, `Cc1cc(Cl)cc(-c2ncnc3cc(CN4C(=O)C5CC5C4=O)sc23)c1CC1CNCC2(COC2)O1` (stereo not drawn) [Example 220, 3-((4-(2-((2,5-dioxa-8-azaspiro[3.5]nonan-6-yl)methyl)-5-chloro-3-methylphenyl)thieno[3,2-d]pyrimidin-6-yl)methyl)-3-azabicyclo[3.1.0]hexane-2,4-dione] registered an IC50 of under 10 nM. Regarding `Cc1cc(Cl)cc(-c2ncnc3cc(CN4C(=O)CCN(C)C4=O)sc23)c1CC1CNCC2(CCC2)O1` (stereo not drawn) [Example 222, 3-((4-(2-((5-oxa-8-azaspiro[3.5]nonan-6-yl)methyl)-5-chloro-3-methylphenyl)thieno[3,2-d]pyrimidin-6-yl)methyl)-1-methyldihydropyrimidine-2,4(1H,3H)-dione], the IC50 was under 10 nM. On to `Cc1cc(Cl)cc(-c2ncnc3cc(Cn4c(=O)ccn(C)c4=O)sc23)c1CC1CNCC2(CCC2)O1` (stereo not drawn) [Example 223, 3-((4-(2-((5-oxa-8-azaspiro[3.5]nonan-6-yl)methyl)-5-chloro-3-methylphenyl)thieno[3,2-d]pyrimidin-6-yl)methyl)-1-methylpyrimidine-2,4(1H,3H)-dione], for which the IC50 is under 10 nM. `COC(=O)[C@H]1CCC(=O)N1Cc1cc2ncnc(-c3cc(Cl)cc(C)c3C[C@@H]3CNCC(C)(C)O3)c2s1` [Example 224, methyl (R)-1-((4-(5-chloro-2-(((R)-6,6-dimethylmorpholin-2-yl)methyl)-3-methylphenyl)thieno[3,2-d]pyrimidin-6-yl)methyl)-5-oxopyrrolidine-2-carboxylate] yielded an IC50 of under 10 nM.

Compound `Cc1cc(Cl)cc(-c2ncnc3cc(CN4C(=O)CC[C@@H]4C(=O)O)sc23)c1C[C@@H]1CNCC(C)(C)O1` [Example 225, (R)-1-((4-(5-chloro-2-(((R)-6,6-dimethylmorpholin-2-yl)methyl)-3-methylphenyl)thieno[3,2-d]pyrimidin-6-yl)methyl)-5-oxopyrrolidine-2-carboxylic acid] had an IC50 of over 100 nM. Next, `CC1(C)C2C(=O)N(Cc3cc4ncnc(-c5cc(Cl)cc(Cl)c5CC5CNCCO5)c4s3)C(=O)C21` (stereo not drawn) [Example 226, 3-((4-(3,5-dichloro-2-(morpholin-2-ylmethyl)phenyl)thieno[3,2-d]pyrimidin-6-yl)methyl)-6,6-dimethyl-3-azabicyclo[3.1.0]hexane-2,4-dione]: under 10 nM; `CC1(C)CNCC(Cc2c(Cl)cc(Cl)cc2-c2ncnc3cc(CN4C(=O)C5CC5C4=O)sc23)O1` (stereo not drawn) [Example 227, 3-((4-(3,5-dichloro-2-((6,6-dimethylmorpholin-2-yl)methyl)phenyl)thieno[3,2-d]pyrimidin-6-yl)methyl)-3-azabicyclo[3.1.0]hexane-2,4-dione]: under 10 nM; `Cc1cc(Cl)cc(-c2ncnc3cc(CN4CC(C(F)F)CC4=O)sc23)c1C[C@@H]1CNCC(C)(C)O1` (stereo partly drawn) [Example 228, 1-((4-(5-chloro-2-(((R)-6,6-dimethylmorpholin-2-yl)methyl)-3-methylphenyl)thieno[3,2-d]pyrimidin-6-yl)methyl)-4-(difluoromethyl)pyrrolidin-2-one]: 10 to 100 nM. Next, `COC[C@H]1CCC(=O)N1Cc1cc2ncnc(-c3cc(Cl)cc(C)c3CC3CNCC(C)(C)O3)c2s1` (stereo partly drawn) [Example 229, (5R)-1-((4-(5-chloro-2-((6,6-dimethylmorpholin-2-yl)methyl)-3-methylphenyl)thieno[3,2-d]pyrimidin-6-yl)methyl)-5-(methoxymethyl)pyrrolidin-2-one]: 10 to 100 nM. Next, `Cc1cc(Cl)cc(-c2ncnc3cc(CN4C(=O)CC[C@@H]4C(F)F)sc23)c1CC1CNCC(C)(C)O1` (stereo partly drawn) [Example 230, (5R)-1-((4-(5-chloro-2-((6,6-dimethylmorpholin-2-yl)methyl)-3-methylphenyl)thieno[3,2-d]pyrimidin-6-yl)methyl)-5-(difluoromethyl)pyrrolidin-2-one]: under 10 nM; `Cc1cc(Cl)cc(-c2ncnc3cc(CN4CC(CO)CC4=O)sc23)c1C[C@@H]1CNCC(C)(C)O1` (stereo partly drawn) [Example 231, 1-((4-(5-chloro-2-(((R)-6,6-dimethylmorpholin-2-yl)methyl)-3-methylphenyl)thieno[3,2-d]pyrimidin-6-yl)methyl)-4-(hydroxymethyl)pyrrolidin-2-one]: 10 to 100 nM; `CCC1CCC(=O)N1Cc1cc2ncnc(-c3cc(Cl)cc(C)c3C[C@@H]3CNCC(C)(C)O3)c2s1` (stereo partly drawn) [Example 232, 1-((4-(5-chloro-2-(((R)-6,6-dimethylmorpholin-2-yl)methyl)-3-methylphenyl)thieno[3,2-d]pyrimidin-6-yl)methyl)-5-ethylpyrrolidin-2-one]: 10 to 100 nM. `Cc1cc(Cl)cc(-c2ncnc3cc(CN4C(=O)N(C)C(C)(C)C4=O)sc23)c1C[C@@H]1CNCC(C)(C)O1` [Example 233, (R)-3-((4-(5-chloro-2-((6,6-dimethylmorpholin-2-yl)methyl)-3-methylphenyl)thieno[3,2-d]pyrimidin-6-yl)methyl)-1,5,5-trimethylimidazolidine-2,4-dione] returned an IC50 of under 10 nM.

Compound `Cc1cc(Cl)cc(-c2ncnc3cc(CN4C(=O)COC4=O)sc23)c1C[C@@H]1CNCC(C)(C)O1` [Example 234, (R)-3-((4-(5-chloro-2-((6,6-dimethylmorpholin-2-yl)methyl)-3-methylphenyl)thieno[3,2-d]pyrimidin-6-yl)methyl)oxazolidine-2,4-dione] showed an IC50 of under 10 nM. Next, `Cc1cc(Cl)cc(-c2ncnc3cc(CN4CCCC4=O)sc23)c1C[C@@H]1CNCC(C)(C)O1` [Example 235, (R)-1-((4-(5-chloro-2-((6,6-dimethylmorpholin-2-yl)methyl)-3-methylphenyl)thieno[3,2-d]pyrimidin-6-yl)methyl)pyrrolidin-2-one]: 10 to 100 nM. Next, `Cc1cc(Cl)cc(-c2ncnc3cc(CN4C(=O)CCN(CC(F)(F)F)C4=O)sc23)c1C[C@@H]1CNCC(C)(C)O1` [Example 236, (R)-3-((4-(5-chloro-2-((6,6-dimethylmorpholin-2-yl)methyl)-3-methylphenyl)thieno[3,2-d]pyrimidin-6-yl)methyl)-1-(2,2,2-trifluoroethyl)dihydropyrimidine-2,4(1H,3H)-dione]: under 10 nM; `Cc1cc(Cl)cc(-c2ncnc3cc(CN4C(=O)CCC4=O)sc23)c1CC1CNCC2(COC2)O1` (stereo not drawn) [Example 237, 1-((4-(2-((2,5-dioxa-8-azaspiro[3.5]nonan-6-yl)methyl)-5-chloro-3-methylphenyl)thieno[3,2-d]pyrimidin-6-yl)methyl)pyrrolidine-2,5-dione]: under 10 nM; `Cc1cc(Cl)cc(-c2ncnc3cc(CN4C(=O)CCN(C)C4=O)sc23)c1CC1CNCC2(COC2)O1` (stereo not drawn) [Example 238, 3-((4-(2-((2,5-dioxa-8-azaspiro[3.5]nonan-6-yl)methyl)-5-chloro-3-methylphenyl)thieno[3,2-d]pyrimidin-6-yl)methyl)-1-methyldihydropyrimidine-2,4(1H,3H)-dione]: under 10 nM. Next, `Cc1cc(Cl)cc(-c2ncnc3cc(Cn4cccc4C#N)sc23)c1C[C@@H]1CNCC(C)(C)O1` [Example 239, (R)-1-((4-(5-chloro-2-((6,6-dimethylmorpholin-2-yl)methyl)-3-methylphenyl)thieno[3,2-d]pyrimidin-6-yl)methyl)-1H-pyrrole-2-carbonitrile]: over 100 nM; `Cc1cc(Cl)cc(-c2ncnc3cc(CN4C(=O)CCN(CC(F)F)C4=O)sc23)c1C[C@@H]1CNCC(C)(C)O1` [Example 240, (R)-3-((4-(5-chloro-2-((6,6-dimethylmorpholin-2-yl)methyl)-3-methylphenyl)thieno[3,2-d]pyrimidin-6-yl)methyl)-1-(2,2-difluoroethyl)dihydropyrimidine-2,4(1H,3H)-dione]: under 10 nM. Consider `Cc1cc(Cl)cc(-c2ncnc3cc(CN4C(=O)CCC4C)sc23)c1C[C@@H]1CNCC(C)(C)O1` (stereo partly drawn) [Example 241, 1-((4-(5-chloro-2-(((R)-6,6-dimethylmorpholin-2-yl)methyl)-3-methylphenyl)thieno[3,2-d]pyrimidin-6-yl)methyl)-5-methylpyrrolidin-2-one], for which the IC50 is 10 to 100 nM. Next, `Cc1cc(Cl)cc(-c2ncnc3cc(CN4C(=O)CC[C@@H]4C(F)F)sc23)c1C[C@@H]1CNCC(C)(C)O1` [Example 242, (R)-1-((4-(5-chloro-2-(((R)-6,6-dimethylmorpholin-2-yl)methyl)-3-methylphenyl)thieno[3,2-d]pyrimidin-6-yl)methyl)-5-(difluoromethyl)pyrrolidin-2-one]: under 10 nM. Next, `Cc1cc(Cl)cc(-c2ncnc3cc(CN4C(=O)CNC4=O)sc23)c1C[C@@H]1CNCCO1` [Example 243, (R)-3-((4-(5-chloro-3-methyl-2-(morpholin-2-ylmethyl)phenyl)thieno[3,2-d]pyrimidin-6-yl)methyl)imidazolidine-2,4-dione]: under 10 nM. Next, `Cc1cc(Cl)cc(-c2ncnc3cc(CN4C(=O)NC(C)C4=O)sc23)c1C[C@@H]1CNCCO1` (stereo partly drawn) [Example 244, 3-((4-(5-chloro-3-methyl-2-(((R)-morpholin-2-yl)methyl)phenyl)thieno[3,2-d]pyrimidin-6-yl)methyl)-5-methylimidazolidine-2,4-dione]: under 10 nM. `CCC1NC(=O)N(Cc2cc3ncnc(-c4cc(Cl)cc(C)c4C[C@@H]4CNCCO4)c3s2)C1=O` (stereo partly drawn) [Example 245, 3-((4-(5-chloro-3-methyl-2-(((R)-morpholin-2-yl)methyl)phenyl)thieno[3,2-d]pyrimidin-6-yl)methyl)-5-ethylimidazolidine-2,4-dione] gave an IC50 of under 10 nM. For `Cc1cc(Cl)cc(-c2ncnc3cc(CN4C(=O)NC(C(C)C)C4=O)sc23)c1C[C@@H]1CNCCO1` (stereo partly drawn) [Example 246, 3-((4-(5-chloro-3-methyl-2-(((R)-morpholin-2-yl)methyl)phenyl)thieno[3,2-d]pyrimidin-6-yl)methyl)-5-isopropylimidazolidine-2,4-dione], the IC50 was under 10 nM. Consider `Cc1cc(Cl)cc(-c2ncnc3cc(CN4C(=O)CCNC4=O)sc23)c1C[C@@H]1CNCCO1` [Example 247, (R)-3-((4-(5-chloro-3-methyl-2-(morpholin-2-ylmethyl)phenyl)thieno[3,2-d]pyrimidin-6-yl)methyl)dihydropyrimidine-2,4(1H,3H)-dione], for which the IC50 is under 10 nM.

Values taken from US11084829B2, “Ubiquitin-specific-processing protease 7 (USP7) modulators and uses thereof” (RAPT THERAPEUTICS, INC., priority 2018, dated 2021).
